Experimental data taken from patent publication US20160257697A1, “THIOPHENE-SUBSTITUTED TETRACYCLIC COMPOUNDS AND METHODS OFUSE THEREOF FOR THE TREATMENT OF VIRAL DISEASES” (priority 2013, published 2016).
Like-named read-outs stand apart in the source and are kept apart here.

Assays:
Experiment in all cases: microbe, parasite or virus in culture
Assay type in all cases: cell-based, Hepatitis C virus (HCV)
[1] = tested on: HCV replicon 1B; details: Replicon Assay B
[2] = tested on: HCV replicon 1AQ30D; details: Replicon Assay B
[3] = tested on: HCV replicon 1AY93H; details: Replicon Assay A
Summary of the method: (§1)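 Compound is added to replicon cells plated at 2000 cells/well (0.5% DMSO, 5% FBS). After 3 days the cells are washed and lysed, and HCV RNA and cyclophilin mRNA are quantified by multiplex RT-PCR against a standard curve of known replicon total RNA.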

[4] = tested on: HCV replicon 2B; details: Replicon Assay A
Summary of the method: as §1

[5] = tested on: HCV replicon 1A; details: Replicon Assay A
Summary of the method: as §1

[6] = read-out: 1A Q30D IC50, replicon 1AQ30D
[7] = read-out: 1A Y93H IC50, replicon 1AY93H
[8] = Hepatitis C virus, read-out: 1A Q30D IC50 (nM), replicon 1AQ30D
[9] = Hepatitis C virus, read-out: 1A Y93H IC50 (nM), replicon 1AY93H
[10] = Hepatitis C virus, read-out: 2B IC50 (nM), replicon 2B
[11] = read-out: 1A Q30D IC50, HCV replicon 1A Q30D
[12] = read-out: 1A Y93H IC50, HCV replicon 1A Y93H
[13] = read-out: 2B IC50, HCV replicon 2B

Row | Compound | IC50 ([1]; replicon 1B) [nM] | IC50 [2, 6] [nM] | IC50 [3, 7] [nM] | IC50 ([4]; read-out: 2B IC50, replicon 2B) [nM] | IC50 ([5]; replicon 1A) [nM] | IC50 ([1]; Hepatitis C virus, replicon 1B) [nM] | IC50 [2, 8] [nM] | IC50 ([5]; Hepatitis C virus, replicon 1A) [nM] | other results
1 | COC(=O)N[C@H](C(=O)N1CCC[C@H]1c1ncc(-c2cc(F)c3c(c2)OC(c2ccc(C4CC4)s2)n2c-3c(F)c3cc(-c4cnc([C@@H]5CCCC5C(=O)[C@@H](NC(=O)OC)C5CCOCC5)[nH]4)ccc32)[nH]1)C(C)C (single isomer, unassigned) [Compound 363] | 0.0021 | 0.0439 | 0.0048 | 0.0037 | 0.0015 | – | – | – | –
2 | COC(=O)N[C@H](C(=O)N1CCC[C@H]1c1ncc(-c2cc(F)c3c(c2)OC(c2ccc(CC(F)(F)F)s2)n2c-3cc3cc(-c4cnc([C@@H]5CCCN5C(=O)[C@@H](NC(=O)OC)C(C)C)[nH]4)ccc32)[nH]1)C(C)C (stereo partly shown) [Compound 125] | – | – | – | – | – | 0.0013 | 0.29 | 0.0023 | IC50 [3, 9]: 0.018 nM; IC50 [4, 10]: 0.089 nM
3 | COC(=O)NC(C(=O)N1[C@@H]2C[C@@H]2C[C@H]1c1ncc(-c2ccc3c(c2)cc2n3C(c3ccc(C4CC4)s3)Oc3cc(-c4cnc([C@@H]5CCCN5C(=O)[C@@H](NC(=O)OC)C(C)C)[nH]4)cc(F)c3-2)[nH]1)C1C[C@@H](C)O[C@@H](C)C1 (single isomer, unassigned) [Compound 273] | 0.002 | 2.06 | 0.18 | 0.74 | 0.0015 | – | – | – | –
4 | COC(=O)N[C@H](C(=O)N1CCC[C@H]1c1ncc(-c2cc(F)c3c(c2)OC(c2ccc(C4CC4)s2)n2c-3cc3cc(-c4cnc([C@@H]5C[C@@H](F)CN5C(=O)[C@@H](NC(=O)OC)C(C)C)[nH]4)ccc32)[nH]1)C(C)C (stereo partly shown) [Compound 757] | – | – | – | – | – | – | – | – | IC50 ([1]; Hepatitis C virus, HCV replicon 1B): 0.003 nM; IC50 ([2]; Hepatitis C virus, read-out: 1A Q30D IC50, HCV replicon 1A Q30D): 2.85 nM; IC50 ([3]; Hepatitis C virus, read-out: 1A Y93H IC50, HCV replicon 1A Y93H): 0.013 nM; IC50 ([4]; Hepatitis C virus, read-out: 2B IC50, HCV replicon 2B): 2.4 nM; IC50 ([5]; Hepatitis C virus, HCV replicon 1A): 0.0027 nM
5 | COC(=O)N[C@H](C(=O)N1CCC[C@H]1c1ncc(-c2cc(F)c3c(c2)OC(c2ccc(C4CC4)s2)n2c-3cc3cc(-c4cnc([C@@H]5C[C@H]6C[C@H]6N5C(=O)[C@@H](NC(=O)OC)C5CCOCC5)[nH]4)ccc32)[nH]1)C(C)C (single isomer, unassigned) [Compound 652] | – | – | – | – | – | – | – | – | IC50 ([1]; HCV replicon 1B): 0.0017 nM; IC50 ([2]; HCV replicon 1A Q30D, read-out: 1A Q30D IC50): 0.327 nM; IC50 ([3]; HCV replicon 1A Y93H, read-out: 1A Y93H IC50): 0.0331 nM; IC50 ([4]; HCV replicon 2B, read-out: 2B IC50): 0.0532 nM; IC50 ([5]; HCV replicon 1A): 0.0012 nM
6 | COC(=O)NC(C(=O)N1CCC[C@H]1c1ncc(-c2cc(F)c3c(c2)OC(c2ccc(C4CC4)s2)n2c-3cc3cc(-c4cnc([C@@H]5CCCN5C(=O)[C@@H](NC(=O)OC)C(C)C)[nH]4)ccc32)[nH]1)C1C[C@@H](C)O[C@@H](C)C1 (stereo partly shown) [Compound 188] | – | – | – | – | – | 0.0012 | 0.02 | 0.0017 | IC50 [3, 9]: 0.002 nM; IC50 [4, 10]: 0.005 nM
7 | COC(=O)N[C@H](C(=O)N1CCC[C@H]1c1ncc(-c2cc(F)c3c(c2)OC(c2ccc(C(=O)N(C)C)s2)n2c-3cc3cc(-c4cnc([C@@H]5CCCN5C(=O)[C@@H](NC(=O)OC)C(C)C)[nH]4)ccc32)[nH]1)C(C)C (single isomer, unassigned) [Compound 104] | – | – | 0.046 | 0.073 | 0.0043 | 0.0051 | 1.11 | – | –
8 | CCc1ccc(C2Oc3cc(-c4cnc([C@@H]5CCCN5C(=O)[C@@H](NC(=O)OC)C(C)C)[nH]4)cc(F)c3-c3cc4cc(-c5cnc([C@@H]6CCCN6C(=O)[C@@H](NC(=O)OC)C6CCOCC6)[nH]5)ccc4n32)s1 (single isomer, unassigned) [Compound 336] | – | 1.5 | 0.062 | 0.128 | – | 0.0011 | – | 0.0022 | –
9 | COC(=O)NC(C(=O)N1[C@@H]2C[C@@H]2C[C@H]1c1ncc(-c2ccc3c(c2)cc2n3C(c3ccc(C4CC4)s3)Oc3cc(-c4cnc([C@@H]5CCCN5C(=O)[C@@H](NC(=O)OC)C(C)C)[nH]4)cc(F)c3-2)[nH]1)C(C)(C)F (stereo partly shown) [Compound 93] | – | – | – | – | – | 0.0025 | 0.053 | 0.003 | IC50 [3, 9]: 0.007 nM; IC50 [4, 10]: 0.054 nM
10 | COC(=O)NC(C(=O)N1CCC[C@H]1c1ncc(-c2ccc3c(c2)cc2n3C(c3cc4ccccc4s3)Oc3cc(-c4cnc([C@@H]5CCCN5C(=O)[C@@H](NC(=O)OC)C5CCOCC5)[nH]4)cc(F)c3-2)[nH]1)C(C)(C)F (single isomer, unassigned) [Compound 184] | 0.002 | 0.21 | 0.16 | 0.076 | 0.002 | – | – | – | –
11 | CCc1ccc(C2Oc3cc(-c4cnc([C@@H]5CCCN5C(=O)C(NC(=O)OC)C5CCOC(C)(C)C5)[nH]4)cc(F)c3-c3cc4cc(-c5cnc([C@@H]6CCCN6C(=O)[C@@H](NC(=O)OC)C(C)C)[nH]5)ccc4n32)s1 (single isomer, unassigned) [Compound 163] | 0.0313 | 0.17 | 0.058 | 0.063 | 0.0184 | – | – | – | –
12 | COC(=O)N[C@H](C(=O)N1CCC[C@H]1c1ncc(-c2cc(F)c3c(c2)OC(c2ccc(C4CC4)s2)n2c-3c(F)c3cc(-c4cnc([C@@H]5CCCC5C(=O)[C@@H](NC(=O)OC)C5CCOCC5)[nH]4)ccc32)[nH]1)C(C)C (single isomer, unassigned) [Compound 362] | – | 0.981 | 0.0775 | 0.0486 | – | 0.0018 | – | 0.0011 | –
13 | COC(=O)NC(C(=O)N1CCC[C@H]1c1ncc(-c2ccc3c(c2)cc2n3C(c3ccc(F)s3)Oc3cc(-c4cnc([C@@H]5CCCN5C(=O)[C@@H](NC(=O)OC)C(C)C)[nH]4)cc(F)c3-2)[nH]1)C1C[C@@H](C)O[C@@H](C)C1 (single isomer, unassigned) [Compound 348] | – | – | 0.0149 | 0.0326 | – | 0.0027 | 0.387 | 0.0019 | –
14 | COC(=O)N[C@H](C(=O)N1CCC[C@H]1c1ncc(-c2ccc3c(c2)OC(c2ccc(C4CC4)s2)n2c-3cc3cc(-c4cnc([C@@H]5CCCN5C(=O)[C@@H](NC(=O)OC)C5CCOCC5)[nH]4)ccc32)[nH]1)C(C)C (single isomer, unassigned) [Compound 335] | – | – | 0.0052 | 0.004 | 0.0025 | 0.0012 | 0.0639 | – | –
15 | COC(=O)N[C@H](C(=O)N1CCC[C@H]1c1ncc(-c2cc(C)c3c(c2)OC(c2ccc(C4CC4)s2)n2c-3cc3cc(-c4cnc([C@@H]5C[C@H]6C[C@H]6N5C(=O)[C@@H](NC(=O)OC)C(C)C)[nH]4)ccc32)[nH]1)C(C)C (single isomer, unassigned) [Compound 755] | – | – | – | – | – | – | – | – | IC50 ([1]; HCV replicon 1B): 0.0019 nM; IC50 [2, 11]: 0.341 nM; IC50 [3, 12]: 0.022 nM; IC50 [4, 13]: 0.023 nM; IC50 ([5]; HCV replicon 1A): 0.0028 nM
16 | COC(=O)N[C@H](C(=O)N1CCC[C@H]1c1nc(-c2cc(F)c3c(c2)OC(c2ccc(C)s2)n2c-3cc3cc(-c4cnc([C@@H]5CCCN5C(=O)[C@@H](NC(=O)OC)C5CCOCC5)[nH]4)ccc32)c[nH]1)C(C)C (stereo partly shown) [Compound 59] | 0.0035 | 0.018 | 0.004 | 0.007 | 0.0013 | – | – | – | –
17 | COC(=O)NC(C(=O)N1CCC[C@H]1c1ncc(-c2ccc3c(c2)cc2n3C(c3cc4ccccc4s3)Oc3cc(-c4cnc([C@@H]5CCCN5C(=O)[C@@H](NC(=O)OC)C5CCOCC5)[nH]4)cc(F)c3-2)[nH]1)C(C)(C)F (single isomer, unassigned) [Compound 185] | 0.0026 | 2.95 | 2.4 | 1.35 | 0.0046 | – | – | – | –
18 | COC(=O)N[C@H](C(=O)N1CCC[C@H]1c1ncc(-c2cc(F)c3c(c2)OC(c2ccc(C(F)F)s2)n2c-3cc3cc(-c4cnc([C@@H]5CCCN5C(=O)[C@@H](NC(=O)OC)C(C)C)[nH]4)ccc32)[nH]1)C(C)C (single isomer, unassigned) [Compound 46] | – | – | – | – | – | 0.001 | 17.1 | 0.0029 | IC50 [3, 9]: 2.6 nM; IC50 [4, 10]: 1.79 nM
19 | CCc1ccc(C2Oc3cc(-c4cnc([C@@H]5CCCN5C(=O)[C@@H](NC(=O)OC)C(C)C)[nH]4)cc(F)c3-c3cc4cc(-c5cnc([C@@H]6C[C@@H](F)CN6C(=O)C(NC(=O)OC)C6CCOC(C)(C)C6)[nH]5)ccc4n32)s1 (single isomer, unassigned) [Compound 259] | 0.0033 | 0.31 | 0.002 | 0.32 | 0.0031 | – | – | – | –
20 | COC(=O)N[C@H](C(=O)N1CCC[C@H]1c1ncc(-c2cc(C)c3c(c2)OC(c2ccc(C4CC4)s2)n2c-3cc3cc(-c4cnc([C@@H]5C[C@H]6C[C@H]6N5C(=O)[C@@H](NC(=O)OC)C5CCOCC5)[nH]4)ccc32)[nH]1)C(C)C (single isomer, unassigned) [Compound 764] | – | – | – | – | – | – | – | – | IC50 ([1]; HCV replicon 1B): 0.0022 nM; IC50 [2, 11]: 0.024 nM; IC50 [3, 12]: 0.0044 nM; IC50 [4, 13]: 0.0052 nM; IC50 ([5]; HCV replicon 1A): 0.0036 nM
